# Test results: article PMC9919579 (Molecules, 2023)
# Biological target: T1, vaccinia virus TOP1 (vaccinia DNA Topoisomerase I) (Vaccinia virus WR, UniProt P68698)
# T1 construct: gene OPG111; TOP1 described as 314 amino acids; amine-coupled to GLH chip
# Assay: biochemical
# Assay type: binding
row,Structure (SMILES),Kd [µM]
1,C[C@@H]1O[C@@H](Oc2c(-c3ccc(O)c(O)c3)oc3cc(O)cc(O)c3c2=O)[C@H](O)[C@H](O)[C@H]1O [Quercitrin],4.77
2,CC1COc2c(N3CCN(C)CC3)c(F)cc3c(=O)c(C(=O)O)cn1c23 (stereo not shown) [Ofloxacin],5.46
3,C[C@@H]1O[C@@H](Oc2c(-c3cc(O)c(O)c(O)c3)oc3cc(O)cc(O)c3c2=O)[C@H](O)[C@H](O)[C@H]1O [Myricitrin],3.54
4,O=C(/C=C/c1ccc(O)c(O)c1)O[C@H](Cc1ccc(O)c(O)c1)C(=O)O [Rosmarinic acid],2.16
